Laboratory results: ChEMBL document CHEMBL1156023, “Grassystatins A-C from marine cyanobacteria, potent cathepsin E inhibitors that reduce antigen presentation” (J Med Chem, 2009)
Square brackets hold non-standard residues; d marks the D form. Peptide text beside a SMILES is read from it. * marks the point of attachment. Sta = CC(C)C[C@H](N)[C@@H](O)CC(=O)O; NMe2Val = CC(C)[C@@H](C(=O)*)N(C)C; dNMeF = CN[C@H](Cc1ccccc1)C(=O)O; dHiv = CC(C)[C@@H](O)C(=O)O; Hiv = CC(C)[C@H](O)C(=O)O

Key:
[1] = biological target: Caspase-2 (Homo sapiens, UniProt P42575); test: Inhibition of caspase 2 after 10 to 15 mins by fluorescence assay
Sequence of Caspase-2 (P42575 170-325 limits assumed): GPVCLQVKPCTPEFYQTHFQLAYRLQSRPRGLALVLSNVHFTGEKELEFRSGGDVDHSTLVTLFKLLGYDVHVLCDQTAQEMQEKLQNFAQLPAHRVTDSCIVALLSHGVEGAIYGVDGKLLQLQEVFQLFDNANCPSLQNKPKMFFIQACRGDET
Sequence of Caspase-2 (P42575 334-452 limits assumed): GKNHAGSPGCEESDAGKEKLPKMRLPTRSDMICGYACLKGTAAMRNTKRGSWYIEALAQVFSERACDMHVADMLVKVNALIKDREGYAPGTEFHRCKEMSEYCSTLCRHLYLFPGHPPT

[2] = biological target: Disintegrin and metalloproteinase domain-containing protein 17 (Homo sapiens, UniProt P78536); conditions: 5.08 to 100000 nM
[3] = biological target: Chymase (Homo sapiens) (UniProt P23946); test: Inhibition of chymase assessed as residual activity at 10 uM after 10 to 15 mins by fluorescence assay relative to control
[4] = biological target: Dipeptidyl peptidase 9 (Homo sapiens) (UniProt Q86TI2); test: Inhibition of DPP9 assessed as residual activity at 10 uM after 10 to 15 mins by fluorescence assay relative to control
[5] = biological target: Caspase-4 (Homo sapiens) (UniProt P49662); test: Inhibition of caspase 4 assessed as residual activity at 10 uM after 10 to 15 mins by fluorescence assay relative to control
[6] = biological target: Kallikrein-5 (Homo sapiens) (UniProt Q9Y337); test: Inhibition of kallikrein 5 assessed as residual activity at 10 uM after 10 to 15 mins by fluorescence assay relative to control
Sequence of Kallikrein-5 (Homo sapiens) (Q9Y337 whole entry): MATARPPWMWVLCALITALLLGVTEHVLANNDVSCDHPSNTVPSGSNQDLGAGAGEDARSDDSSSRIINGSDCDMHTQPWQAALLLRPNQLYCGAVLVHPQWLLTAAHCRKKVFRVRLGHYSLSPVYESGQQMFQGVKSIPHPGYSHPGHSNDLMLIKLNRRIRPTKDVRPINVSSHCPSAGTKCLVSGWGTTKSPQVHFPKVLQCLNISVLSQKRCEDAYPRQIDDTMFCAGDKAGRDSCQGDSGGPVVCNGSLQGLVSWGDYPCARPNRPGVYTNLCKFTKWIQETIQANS

[7] = biological target: Caspase-2 (Homo sapiens) (UniProt P42575); test: Inhibition of caspase 2 assessed as residual activity at 10 uM after 10 to 15 mins by fluorescence assay relative to control
Sequence of Caspase-2 (Homo sapiens) (P42575 170-325 limits assumed): as the sequence (P42575 170-325 limits assumed) above
Sequence of Caspase-2 (Homo sapiens) (P42575 334-452 limits assumed): as the sequence (P42575 334-452 limits assumed) above

[8] = biological target: Matrilysin (Homo sapiens) (UniProt P09237); test: Inhibition of MMP7 assessed as residual activity at 10 uM after 10 to 15 mins by fluorescence assay relative to control
Sequence of Matrilysin (Homo sapiens) (P09237 whole entry): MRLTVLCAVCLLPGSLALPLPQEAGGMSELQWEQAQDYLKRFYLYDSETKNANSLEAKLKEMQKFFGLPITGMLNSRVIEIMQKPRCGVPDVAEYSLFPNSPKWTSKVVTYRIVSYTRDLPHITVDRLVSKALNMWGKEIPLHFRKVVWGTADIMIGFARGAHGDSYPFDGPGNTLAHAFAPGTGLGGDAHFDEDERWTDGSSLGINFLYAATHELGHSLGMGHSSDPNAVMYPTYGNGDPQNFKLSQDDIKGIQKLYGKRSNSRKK

[9] = biological target: Renin (Homo sapiens) (UniProt P00797); test: Inhibition of human renin assessed as residual activity at 10 uM after 10 to 15 mins by fluorescence assay relative to control
[10] = biological target: Interstitial collagenase (Homo sapiens, UniProt P03956); test: Inhibition of MMP1 after 10 to 15 mins by fluorescence assay
Sequence of Interstitial collagenase (P03956 whole entry): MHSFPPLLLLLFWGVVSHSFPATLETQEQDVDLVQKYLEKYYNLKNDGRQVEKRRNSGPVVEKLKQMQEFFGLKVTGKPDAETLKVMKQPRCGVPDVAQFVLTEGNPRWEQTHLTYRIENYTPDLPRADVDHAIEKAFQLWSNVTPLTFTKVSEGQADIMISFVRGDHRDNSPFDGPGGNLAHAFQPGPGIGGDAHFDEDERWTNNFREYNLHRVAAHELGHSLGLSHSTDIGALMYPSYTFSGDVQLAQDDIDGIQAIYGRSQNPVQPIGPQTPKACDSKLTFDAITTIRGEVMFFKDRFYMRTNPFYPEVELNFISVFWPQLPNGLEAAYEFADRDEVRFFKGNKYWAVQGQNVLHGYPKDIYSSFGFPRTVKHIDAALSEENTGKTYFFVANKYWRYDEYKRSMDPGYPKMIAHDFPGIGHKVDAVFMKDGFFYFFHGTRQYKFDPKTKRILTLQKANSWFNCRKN

[11] = biological target: Stromelysin-3 (Homo sapiens) (UniProt P24347); test: Inhibition of MMP11 assessed as residual activity at 10 uM after 10 to 15 mins by fluorescence assay relative to control
Sequence of Stromelysin-3 (Homo sapiens) (P24347 whole entry): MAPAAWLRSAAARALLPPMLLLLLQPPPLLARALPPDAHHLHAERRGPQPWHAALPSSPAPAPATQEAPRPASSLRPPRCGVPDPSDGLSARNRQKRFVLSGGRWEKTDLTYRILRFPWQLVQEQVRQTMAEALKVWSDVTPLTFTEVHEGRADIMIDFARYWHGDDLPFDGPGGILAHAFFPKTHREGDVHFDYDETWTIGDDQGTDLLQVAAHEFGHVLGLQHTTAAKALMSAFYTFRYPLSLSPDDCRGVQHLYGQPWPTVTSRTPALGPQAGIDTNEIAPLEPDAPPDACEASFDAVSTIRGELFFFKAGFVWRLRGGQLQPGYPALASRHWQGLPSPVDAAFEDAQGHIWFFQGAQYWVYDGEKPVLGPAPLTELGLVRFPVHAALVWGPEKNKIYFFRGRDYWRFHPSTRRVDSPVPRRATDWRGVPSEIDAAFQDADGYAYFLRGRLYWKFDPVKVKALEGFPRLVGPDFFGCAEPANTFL

[12] = biological target: Plasma kallikrein (Homo sapiens) (UniProt P03952); test: Inhibition of plasma kallikrein assessed as residual activity at 10 uM after 10 to 15 mins by fluorescence assay relative to control; format: cell-free
[13] = biological target: Caspase-4 (Mus musculus) (UniProt P70343); test: Inhibition of mouse caspase 11 assessed as residual activity at 10 uM after 10 to 15 mins by fluorescence assay relative to control
[14] = biological target: Dipeptidyl peptidase 1 (Homo sapiens) (UniProt P53634); test: Inhibition of cathepsin C assessed as residual activity at 10 uM after 10 to 15 mins by fluorescence assay relative to control
[15] = biological target: Caspase-5 (Homo sapiens, UniProt P51878); test: Inhibition of caspase 5 after 10 to 15 mins by fluorescence assay
[16] = biological target: Neutrophil collagenase (Homo sapiens, UniProt P22894); test: Inhibition of MMP8 catalytic domain after 10 to 15 mins by fluorescence assay
Sequence of Neutrophil collagenase (P22894 whole entry, the tested form may be a part): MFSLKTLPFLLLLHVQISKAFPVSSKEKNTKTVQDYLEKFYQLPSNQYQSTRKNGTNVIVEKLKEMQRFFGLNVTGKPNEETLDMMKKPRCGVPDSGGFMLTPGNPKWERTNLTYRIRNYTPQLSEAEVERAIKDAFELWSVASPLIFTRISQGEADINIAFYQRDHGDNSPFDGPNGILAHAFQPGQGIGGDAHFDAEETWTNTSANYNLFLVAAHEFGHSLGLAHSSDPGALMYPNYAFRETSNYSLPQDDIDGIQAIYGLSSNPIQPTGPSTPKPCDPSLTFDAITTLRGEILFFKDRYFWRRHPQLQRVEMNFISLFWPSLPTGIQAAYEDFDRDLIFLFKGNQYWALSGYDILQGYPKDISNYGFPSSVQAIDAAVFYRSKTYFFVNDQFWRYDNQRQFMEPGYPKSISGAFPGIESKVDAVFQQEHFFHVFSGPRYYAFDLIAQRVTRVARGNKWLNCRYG

[17] = biological target: Angiotensin-converting enzyme (Homo sapiens) (UniProt P12821); test: Inhibition of ACE1 assessed as residual activity at 10 uM after 10 to 15 mins by fluorescence assay relative to control
[18] = biological target: Caspase-14 (Homo sapiens, UniProt P31944); test: Inhibition of caspase 14 after 10 to 15 mins by fluorescence assay
[19] = biological target: Caspase-4 (Mus musculus, UniProt P70343); test: Inhibition of mouse caspase 11 after 10 to 15 mins by fluorescence assay
[20] = biological target: T1, Stromelysin-1 (Homo sapiens, UniProt P08254); test: Inhibition of MMP3 assessed as residual activity at 10 uM after 10 to 15 mins by fluorescence assay relative to control
Target sequence in this assay (P08254 100-477 limits assumed): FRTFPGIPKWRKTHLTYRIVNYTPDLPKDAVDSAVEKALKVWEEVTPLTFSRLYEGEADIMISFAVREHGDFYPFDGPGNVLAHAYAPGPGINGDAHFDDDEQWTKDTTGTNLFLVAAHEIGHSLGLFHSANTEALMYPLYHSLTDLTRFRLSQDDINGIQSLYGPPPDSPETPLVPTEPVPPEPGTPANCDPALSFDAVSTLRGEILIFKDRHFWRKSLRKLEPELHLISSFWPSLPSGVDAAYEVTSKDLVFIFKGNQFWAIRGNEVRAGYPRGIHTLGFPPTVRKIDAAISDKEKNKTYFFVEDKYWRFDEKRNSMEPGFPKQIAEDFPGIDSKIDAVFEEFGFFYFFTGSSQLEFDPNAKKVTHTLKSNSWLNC

[21] = biological target: T1, Stromelysin-1; test: Inhibition of MMP3 after 10 to 15 mins by fluorescence assay
[22] = biological target: Caspase-9 (Homo sapiens, UniProt P55211); test: Inhibition of caspase 9 after 10 to 15 mins by fluorescence assay
[23] = biological target: Caspase-10 (Homo sapiens) (UniProt Q92851); test: Inhibition of caspase 10 assessed as residual activity at 10 uM after 10 to 15 mins by fluorescence assay relative to control
[24] = biological target: Plasminogen (Homo sapiens) (UniProt P00747); test: Inhibition of human plasmin assessed as residual activity at 10 uM after 10 to 15 mins by fluorescence assay relative to control
Sequence of Plasminogen (Homo sapiens) (P00747 97-580 limits assumed): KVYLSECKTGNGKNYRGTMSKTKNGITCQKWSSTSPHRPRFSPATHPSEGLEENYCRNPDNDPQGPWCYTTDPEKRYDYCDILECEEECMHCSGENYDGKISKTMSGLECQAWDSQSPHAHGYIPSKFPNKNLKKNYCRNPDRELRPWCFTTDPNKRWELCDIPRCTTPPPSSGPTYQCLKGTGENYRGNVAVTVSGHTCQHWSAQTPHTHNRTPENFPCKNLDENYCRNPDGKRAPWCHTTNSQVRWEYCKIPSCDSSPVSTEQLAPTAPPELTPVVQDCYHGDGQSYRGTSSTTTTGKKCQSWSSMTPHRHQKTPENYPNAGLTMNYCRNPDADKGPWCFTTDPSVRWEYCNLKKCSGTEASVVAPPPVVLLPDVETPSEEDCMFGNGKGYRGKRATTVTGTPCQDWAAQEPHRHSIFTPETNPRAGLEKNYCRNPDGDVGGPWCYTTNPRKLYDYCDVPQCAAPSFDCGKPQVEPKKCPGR
Sequence of Plasminogen (Homo sapiens) (P00747 581-810 limits assumed): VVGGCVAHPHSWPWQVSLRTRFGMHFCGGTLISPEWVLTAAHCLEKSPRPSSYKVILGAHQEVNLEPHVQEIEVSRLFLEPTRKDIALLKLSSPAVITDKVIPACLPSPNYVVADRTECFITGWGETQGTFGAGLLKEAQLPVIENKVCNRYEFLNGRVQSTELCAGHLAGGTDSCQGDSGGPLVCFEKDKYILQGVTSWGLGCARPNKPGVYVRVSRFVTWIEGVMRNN

[25] = biological target: Kallikrein-8 (Homo sapiens) (UniProt O60259); test: Inhibition of kallikrein 8 assessed as residual activity at 10 uM after 10 to 15 mins by fluorescence assay relative to control
[26] = biological target: Caspase-9 (Homo sapiens) (UniProt P55211); test: Inhibition of caspase 9 assessed as residual activity at 10 uM after 10 to 15 mins by fluorescence assay relative to control
[27] = biological target: Caspase-5 (Homo sapiens) (UniProt P51878); test: Inhibition of caspase 5 assessed as residual activity at 10 uM after 10 to 15 mins by fluorescence assay relative to control
[28] = biological target: Vitamin K-dependent protein C (Homo sapiens, UniProt P04070); test: Inhibition of activated protein C assessed as residual activity at 10 uM after 10 to 15 mins by fluorescence assay in presence of 50% […] relative to control
Sequence of Vitamin K-dependent protein C (P04070 43-197 limits assumed): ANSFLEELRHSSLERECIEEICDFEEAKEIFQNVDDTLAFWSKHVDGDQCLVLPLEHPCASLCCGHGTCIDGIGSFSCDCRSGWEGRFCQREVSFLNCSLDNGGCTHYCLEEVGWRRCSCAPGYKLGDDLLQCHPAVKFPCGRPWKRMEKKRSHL
Sequence of Vitamin K-dependent protein C (P04070 212-461 limits assumed): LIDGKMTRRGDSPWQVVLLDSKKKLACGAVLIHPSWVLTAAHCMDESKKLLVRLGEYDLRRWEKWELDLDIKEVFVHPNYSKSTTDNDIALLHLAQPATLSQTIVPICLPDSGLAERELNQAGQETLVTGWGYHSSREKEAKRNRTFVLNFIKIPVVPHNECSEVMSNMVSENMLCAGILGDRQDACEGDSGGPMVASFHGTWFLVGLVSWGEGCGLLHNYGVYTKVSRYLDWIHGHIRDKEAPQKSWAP

[29] = biological target: Pro-cathepsin H (Homo sapiens) (UniProt P09668); test: Inhibition of cathepsin H assessed as residual activity at 10 uM after 10 to 15 mins by fluorescence assay relative to control
Sequence of Pro-cathepsin H (Homo sapiens) (P09668 116-335 limits assumed, other chains not shown): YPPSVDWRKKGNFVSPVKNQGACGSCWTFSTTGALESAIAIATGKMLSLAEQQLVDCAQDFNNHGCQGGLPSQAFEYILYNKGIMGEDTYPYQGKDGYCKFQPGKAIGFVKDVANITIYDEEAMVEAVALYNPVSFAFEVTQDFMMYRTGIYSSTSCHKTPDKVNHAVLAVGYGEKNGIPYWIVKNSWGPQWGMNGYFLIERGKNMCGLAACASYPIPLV

[30] = biological target: Stromelysin-3 (Homo sapiens, UniProt P24347); test: Inhibition of MMP11 catalytic domain after 10 to 15 mins by fluorescence assay
Sequence of Stromelysin-3 (P24347 whole entry, the tested form may be a part): as the sequence (P24347 whole entry) above

[31] = biological target: Caspase-1 (Homo sapiens) (UniProt P29466); test: Inhibition of caspase 1 assessed as residual activity at 10 uM after 10 to 15 mins by fluorescence assay relative to control
[32] = biological target: Collagenase 3 (Homo sapiens, UniProt P45452); test: Inhibition of MMP13 catalytic domain after 10 to 15 mins by fluorescence assay

With `COC(=O)[C@@H]1CCCN1C(=O)[C@@H](Cc1ccccc1)N(C)C(=O)[C@H](C)NC(=O)[C@@H](NC(=O)C[C@H](O)[C@H](CC(C)C)NC(=O)[C@H](CC(N)=O)NC(=O)[C@H](CC(C)C)NC(=O)[C@H](OC(=O)[C@@H](OC(=O)[C@H](C(C)C)N(C)C)C(C)C)C(C)C)[C@@H](C)O` [GRASSYSTATIN A] (NMe2Val-[Hiv][dHiv]LN[Sta]TA[dNMeF]P-OMe) the IC50 [1] was 5 µM, the inhibition [2] was “tde” and the Activity [3] was 90%. It also gave an Activity [4] of 82%, an Activity [5] of 64% and an Activity [6] of 84%. It also gave an Activity [7] of 69%, an Activity [8] of 90% and an Activity [9] of 96%. For the same compound, the IC50 [10] was 5 µM, the Activity [11] was 88% and the Activity [12] was 78%. It also gave an Activity [13] of 60%, an Activity [14] of 110% and an IC50 [15] of 5 µM. It also gave an IC50 [16] of 5 µM, an Activity [17] of 84% and an IC50 [18] of 5 µM. It also gave an IC50 [19] of 5 µM, an Activity [20] of 86% and an IC50 [21] of 5 µM. The IC50 [22] was 5 µM, the Activity [23] was 102% and the Activity [24] was 86%. The Activity [25] was 101%, the Activity [26] was 78% and the Activity [27] was 58%. It also gave an Activity [28] of 130%, an Activity [29] of 80% and an IC50 [30] of 5 µM. For the same compound, the Activity [31] was 90% and the IC50 [32] was 5 µM.
